Laboratory results taken from patent publication US8288375B2, “Fungicidal bicyclic pyrazoles” (E.I. du Pont de Nemours and Company, priority 2007, dated 2012).
Marks after values point to notes of the source that are not given here.

What was measured:
Type in all cases: in vivo
[1] = system: Erysiphe graminis f. sp. tritici; assay: Test A: wheat powdery mildew, test suspension sprayed on wheat seedlings, disease rating; settings: 200 ppm test suspension, 100 = 100% disease control, 0 = no control; for pest or weed control at 200 ppm: Blumeria graminis, 192 h
[2] = system: Septoria tritici; assay: Test E: wheat leaf blotch, test suspension sprayed on wheat seedlings, disease rating;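 further: 200 ppm unless marked * meaning 40 ppm or ** meaning 10 ppm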
[3] = system: Puccinia recondite f sp. tritici; assay: Test B: wheat leaf rust, test suspension sprayed on wheat seedlings, disease rating; settings: for pest or weed control at 40 ppm: Puccinia, 192 h;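 on all read-outs here: 200 ppm unless marked * meaning 40 ppm or ** meaning 10 ppm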
[4] = system: Septoria nodorum; assay: Test D: wheat glume blotch, test suspension sprayed on wheat seedlings, disease rating; settings: 200 ppm test suspension; for pest or weed control at 200 ppm: Parastagonospora nodorum, 216 h
[5] = system: Botrytis cinerea; assay: Test H: tomato Botrytis, test suspension sprayed on tomato seedlings, disease rating; settings: 200 ppm test suspension
[6] = system: Alternaria solani; assay: Test G: tomato early blight, test suspension sprayed on seedlings, disease rating;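 further: 200 ppm unless marked * meaning 40 ppm or ** meaning 10 ppm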
[7] = system: Phytophthora infestans; assay: whole plant or invertebrate; settings: for Test J disease control rating: 40 ppm test suspension (*)
[8] = system: Pythium aphanidermatum; assay: Test L: bluegrass pythium blight, test suspension sprayed on bluegrass seedlings, disease rating; settings: for Test L disease control rating: 40 ppm test suspension (*);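 on all read-outs here: 200 ppm unless marked * meaning 40 ppm or ** meaning 10 ppm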
[9] = system: Fusarium graminearum; assay: whole plant or invertebrate; settings: for pest or weed control at 40 ppm: Fusarium graminearum, in Triticum aestivum, 192 h, read-out: Test C disease control rating
[10] = system: Colletotrichum orbiculare; assay: Test F: cucumber Colletotrichum anthracnose, test suspension sprayed on cucumber seedlings, disease rating
[11] = system: Rhizoctonia oryzae; assay: Test I: turf brown patch, test suspension sprayed on creeping bent grass seedlings, disease rating; settings: 200 ppm test suspension
[12] = Phytophthora infestans, in Solanum lycopersicum, 120 h, read-out: Test J disease control rating

Structure (SMILES): CCNc1nccc(-c2c(-c3cccc(C)c3)nn3c2CCCC3)n1 [compound 186]
- Test A disease control rating [1]: 79%
- Test E disease control rating ([2]; 200 ppm test suspension): 95%
- Test B disease control rating ([3]; 200 ppm test suspension): 99%
- Test D disease control rating [4]: 99%
- Test H disease control rating [5]: 99%
- Test G disease control rating ([6]; 200 ppm test suspension): 99%

Structure (SMILES): CC(C)Nc1nccc(-c2c(-c3ccc(F)cc3)nn3c2COCC3)n1.Cl [compound 128]
- Test A disease control rating [1]: 0%
- Test E disease control rating ([2]; 40 ppm test suspension (*)): 94* %
- Test J disease control rating [7]: 100* %
- Test B disease control rating ([3]; 40 ppm test suspension (*)): 96* %
- Test L disease control rating [8]: 100* %
- Test C disease control rating ([9]; 40 ppm test suspension (*)): 99* %
- Test D disease control rating [4]: 99%
- Test H disease control rating [5]: 89%
- Test F disease control rating ([10]; 200 ppm test suspension): 99%
- Test G disease control rating ([6]; 40 ppm test suspension (*)): 99* %

Structure (SMILES): Fc1ccc(-c2nn3c(c2-c2ccnc(NCc4ccco4)n2)CCCC3)cc1 [compound 78]
- Test A disease control rating [1]: 58%
- Test I disease control rating [11]: 0%
- Test E disease control rating ([2]; 40 ppm test suspension (*)): 60* %
- Test J disease control rating [7]: 17* %
- Test L disease control rating [8]: 0* %
- Test C disease control rating ([9]; 40 ppm test suspension (*)): 99* %
- Test D disease control rating [4]: 69%
- Test H disease control rating [5]: 0%
- Test F disease control rating ([10]; 200 ppm test suspension): 0%
- Test G disease control rating ([6]; 40 ppm test suspension (*)): 0* %

Structure (SMILES): Fc1ccc(-c2nn3c(c2-c2ccnc(NCC4CCOCC4)n2)CCCC3)cc1 [compound 80]
- Test A disease control rating [1]: 82%
- Test I disease control rating [11]: 0%
- Test E disease control rating ([2]; 40 ppm test suspension (*)): 93* %
- Test J disease control rating [7]: 33* %
- Test L disease control rating [8]: 0* %
- Test C disease control rating ([9]; 40 ppm test suspension (*)): 98* %
- Test D disease control rating [4]: 82%
- Test H disease control rating [5]: 44%
- Test F disease control rating ([10]; 200 ppm test suspension): 0%
- Test G disease control rating ([6]; 40 ppm test suspension (*)): 68* %

Structure (SMILES): CCCNc1nccc(-c2c(-c3cccc(C)c3)nn3c2CCCC3)n1 [compound 185]
- Test A disease control rating [1]: 74%
- Test E disease control rating ([2]; 200 ppm test suspension): 97%
- Test B disease control rating ([3]; 200 ppm test suspension): 97%
- Test D disease control rating [4]: 99%
- Test H disease control rating [5]: 99%
- Test G disease control rating ([6]; 200 ppm test suspension): 95%

Structure (SMILES): CN1CCCc2c(-c3ccnc(NC4CC4)n3)c(-c3ccc(F)cc3)nn21 [Compound 135, N-cyclopropyl-4-[2-(4-fluorophenyl)-4,5,6,7-tetrahydro-7-methylpyrazolo[1,5-b]pyridazin-3-yl]-2-pyrimidinamine]
- pest or weed control at 200 ppm [1]: 95%
- pest or weed control at 200 ppm ([11]; Waitea circinata, in Agrostis stolonifera, 120 h): 0%
- pest or weed control at 40 ppm ([2]; Zymoseptoria tritici, 504 h, 40 ppm test suspension (*)): 90%
- pest or weed control at 40 ppm [7, 12]: 70%
- pest or weed control at 40 ppm ([3]; 40 ppm test suspension (*)): 61%
- pest or weed control at 40 ppm [9]: 84%
- pest or weed control at 200 ppm [4]: 89%
- pest or weed control at 200 ppm ([5]; Botrytis cinerea, 120 h): 70%
- pest or weed control at 200 ppm ([10]; Colletotrichum orbiculare, 144 h, 200 ppm test suspension): 99%
- pest or weed control at 40 ppm ([6]; Alternaria solani, 168 h, 40 ppm test suspension (*)): 99%

Structure (SMILES): Cc1cccc(-c2nn3c(c2-c2ccnc(NC4CC4)n2)CCCC3)c1 [compound 181]
- Test A disease control rating [1]: 97%
- Test E disease control rating ([2]; 200 ppm test suspension): 100%
- Test B disease control rating ([3]; 200 ppm test suspension): 100%
- Test C disease control rating ([9]; 200 ppm test suspension): 100%
- Test D disease control rating [4]: 100%
- Test H disease control rating [5]: 94%
- Test G disease control rating ([6]; 200 ppm test suspension): 99%

Structure (SMILES): CCCNc1nccc(-c2c(-c3ccccc3)nn3c2COCC3)n1 [compound 184]
- Test A disease control rating [1]: 61%
- Test E disease control rating ([2]; 200 ppm test suspension): 100%
- Test B disease control rating ([3]; 200 ppm test suspension): 99%
- Test C disease control rating ([9]; 200 ppm test suspension): 99%
- Test D disease control rating [4]: 90%
- Test H disease control rating [5]: 80%
- Test G disease control rating ([6]; 200 ppm test suspension): 98%

Structure (SMILES): Fc1ccc(-c2nn3c(c2-c2ccnc(NC4CCOCC4)n2)COCC3)cc1 [compound 129]
- Test A disease control rating [1]: 0%
- Test I disease control rating [11]: 53%
- Test E disease control rating ([2]; 40 ppm test suspension (*)): 81* %
- Test J disease control rating [7]: 95* %
- Test B disease control rating ([3]; 40 ppm test suspension (*)): 98* %
- Test L disease control rating [8]: 100* %
- Test C disease control rating ([9]; 40 ppm test suspension (*)): 100* %
- Test D disease control rating [4]: 99%
- Test H disease control rating [5]: 84%
- Test G disease control rating ([6]; 40 ppm test suspension (*)): 95* %

Structure (SMILES): CC(CN1C(=O)c2ccccc2C1=O)Nc1nccc(-c2c(-c3ccc(F)cc3)nn3c2CCCC3)n1 (stereo not drawn) [compound 71]
- Test A disease control rating [1]: 0%
- Test E disease control rating ([2]; 40 ppm test suspension (*)): 33* %
- Test J disease control rating [7]: 9* %
- Test B disease control rating ([3]; 40 ppm test suspension (*)): 0* %
- Test L disease control rating [8]: 97* %
- Test C disease control rating ([9]; 40 ppm test suspension (*)): 0* %
- Test D disease control rating [4]: 64%
- Test H disease control rating [5]: 0%
- Test F disease control rating ([10]; 200 ppm test suspension): 0%
- Test G disease control rating ([6]; 40 ppm test suspension (*)): 0* %

Structure (SMILES): CCCNc1nccc(-c2c(-c3ccccc3)nn3c2CCCC3)n1 [compound 179]
- Test A disease control rating [1]: 75%
- Test I disease control rating [11]: 89%
- Test E disease control rating ([2]; 200 ppm test suspension): 100%
- Test B disease control rating ([3]; 200 ppm test suspension): 100%
- Test C disease control rating ([9]; 200 ppm test suspension): 100%
- Test D disease control rating [4]: 99%

Structure (SMILES): CC(=O)N1CCCc2c(-c3ccnc(NC4CCOCC4)n3)c(-c3ccc(F)cc3)nn21 [Compound 139]
- Test A disease control rating [1]: 73%
- Test I disease control rating [11]: 40%
- Test E disease control rating ([2]; 40 ppm test suspension (*)): 29* %
- Test J disease control rating [7]: 93* %
- Test B disease control rating ([3]; 40 ppm test suspension (*)): 90* %
- Test L disease control rating [8]: 100* %
- Test C disease control rating ([9]; 40 ppm test suspension (*)): 95* %
- Test D disease control rating [4]: 99%
- Test H disease control rating [5]: 0%
- Test G disease control rating ([6]; 40 ppm test suspension (*)): 99* %

Structure (SMILES): Cc1ccc(CNc2nccc(-c3c(-c4ccc(F)cc4)nn4c3CCCC4)n2)o1 [compound 79]
- Test A disease control rating [1]: 76%
- Test I disease control rating [11]: 0%
- Test E disease control rating ([2]; 40 ppm test suspension (*)): 93* %
- Test J disease control rating [7]: 0* %
- Test L disease control rating [8]: 0* %
- Test C disease control rating ([9]; 40 ppm test suspension (*)): 99* %
- Test D disease control rating [4]: 69%
- Test H disease control rating [5]: 0%
- Test F disease control rating ([10]; 200 ppm test suspension): 0%
- Test G disease control rating ([6]; 40 ppm test suspension (*)): 0* %

Structure (SMILES): c1ccc(-c2nn3c(c2-c2ccnc(NC4CC4)n2)CCCC3)cc1 [Compound 27, N-cyclopropyl-4-(4,5,6,7-tetrahydro-2-phenylpyrazolo[1,5-a]pyridin-3-yl)-2-pyrimidinamine]
- pest or weed control at 200 ppm [1]: 96%
- pest or weed control at 200 ppm ([2]; Zymoseptoria tritici, 504 h, 200 ppm test suspension): 97%
- pest or weed control at 200 ppm [7, 12]: 97%
- pest or weed control at 40 ppm ([3]; 40 ppm test suspension (*)): 95%
- pest or weed control at 200 ppm ([8]; Pythium aphanidermatum, 120 h, 200 ppm test suspension): 98%
- pest or weed control at 40 ppm [9]: 99%
- pest or weed control at 200 ppm [4]: 98%
- pest or weed control at 10 ppm ([10]; Colletotrichum orbiculare, 144 h, 10 ppm test suspension (**)): 66%
- pest or weed control at 10 ppm ([6]; Alternaria solani, 168 h, 10 ppm test suspension (**)): 95%

Structure (SMILES): CNc1nccc(-c2c(-c3ccccc3)nn3c2CCCC3)n1 [compound 142]
- Test A disease control rating [1]: 95%
- Test E disease control rating ([2]; 200 ppm test suspension): 100%
- Test B disease control rating ([3]; 200 ppm test suspension): 100%
- Test C disease control rating ([9]; 200 ppm test suspension): 97%
- Test D disease control rating [4]: 98%
- Test H disease control rating [5]: 53%
- Test G disease control rating ([6]; 200 ppm test suspension): 0%

Structure (SMILES): CC(CN(C)C)Nc1nccc(-c2c(-c3ccc(F)cc3)nn3c2CCCC3)n1 (stereo not drawn) [compound 77]
- Test A disease control rating [1]: 82%
- Test I disease control rating [11]: 0%
- Test E disease control rating ([2]; 40 ppm test suspension (*)): 0* %
- Test J disease control rating [7]: 40* %
- Test L disease control rating [8]: 0* %
- Test C disease control rating ([9]; 40 ppm test suspension (*)): 92* %
- Test D disease control rating [4]: 49%
- Test H disease control rating [5]: 29%
- Test F disease control rating ([10]; 200 ppm test suspension): 0%
- Test G disease control rating ([6]; 40 ppm test suspension (*)): 0* %
